Data from patent US20230233555A1 (AbbVie Inc., priority 2022, published 2023).
“Also recorded” adds a separate entry of the source.

Key:
QTc interval = assay: Cardiac electrophysiology (QTc); assay type: in vivo, human
[1] = Population pharmacokinetic analyses; assay type: in vivo, human
Method: Renal clearance indicates some involvement of renal transporters in the excretion. Renal secretion is however not estimated to contribute to more than 25% of the elimination. […] As used herein, reference to “severe renal impairment” means a creatinine clearance of less than 30 mL/min.
The effect of different intrinsic factors has been evaluated in dedicated PK studies in renal and hepatic impairment and in Asian subjects, and by population pharmacokinetic analysis from the phase 2/3 studies. […] There are limited data in patients aged 75 years and older and there is no pharmacokinetic data in children and adolescents.

[2] = tested on: patients with moderately to severely active rheumatoid arthritis, inadequate response to MTX; assay: Trial RA-II (NCT02706951); assay type: in vivo, human; conditions: RA-II through Week 14; 30 mg monotherapy
Text: The primary endpoint was the proportion of patients who achieved an ACR20 response at Week 14. Key secondary endpoints included DAS28-CRP ≤3.2, DAS28-CRP <2.6, and change from baseline in HAQ-DI at Week 14.

[3] = tested on: P-gp, BCRP, BSEP, OATP1B1, OATP1B3, OCT1, OCT2, OAT1, OAT3, MATE1, MATE2K; assay: In vitro transporter inhibition; assay type: in vitro ADME; conditions: clinically relevant concentrations
[4] = Drug interaction studies: effect of co-administered drugs on upadacitinib pharmacokinetics (incl. Study M13-401); assay type: in vivo, human
Text: The data from Study M13-401 are provided in Table 38 and Table 39, which show the expected increase in Cmax and AUCss, respectively, in patients with UC across all dose levels with co-administration of CYP3A4 inhibitors.

[5] = Human radiolabeled [14C]-upadacitinib study (metabolism and excretion); assay type: in vivo
Solubility in water = assay type: physicochemical; conditions: aqueous buffer, pH range of 2 to 9 at 37° C.
Text: The strength of upadacitinib is based on anhydrous upadacitinib. […]

pregnant female rats = assay: Oral pre- and post-natal development study in rats; assay type: in vivo; conditions: GD 6 through lactation day 20, AUC basis, 10 mg/kg/day
[6] = tested on: CYP1A2, 2B6, 2C8, 2C9, 2C18, 2C19, 2J2, FMO1, FMO3, OATP1B1, OATP1B3, OCT1; assay: In vitro substrate assessment, other enzymes and transporters; assay type: in vitro ADME
[7] = tested on: human peripheral blood lymphocytes; assay: In vitro chromosome aberration assay; assay type: cell-based
[8] = Plasma protein binding and blood to plasma partitioning; assay type: in vitro ADME; conditions: human, read-out: Bound to plasma proteins (converted)
P-gp, BCRP = assay: In vitro transporter substrate assessment, P-gp and BCRP; assay type: in vitro ADME
male and female rats = assay: Fertility study in rats; assay type: in vivo, rat
Sprague-Dawley rats = assay: Carcinogenicity study in Sprague-Dawley rats; assay type: in vivo, rat; conditions: for Exposure multiple at top dose without tumorigenicity: AUC basis
Tg.rasH2 mice = assay: Carcinogenicity study in Tg.rasH2 mice; assay type: in vivo, mouse; conditions: 26 weeks, oral up to 20 mg/kg/day
pregnant rabbits = assay: Oral embryo-fetal developmental study in rabbits; assay type: in vivo
CYP2D6 = CYP2D6 (Homo sapiens, UniProt P10635); assay: In vitro metabolism / substrate assessment, CYP2D6; assay type: in vitro ADME
CYP2D6, sequence (P10635 whole entry): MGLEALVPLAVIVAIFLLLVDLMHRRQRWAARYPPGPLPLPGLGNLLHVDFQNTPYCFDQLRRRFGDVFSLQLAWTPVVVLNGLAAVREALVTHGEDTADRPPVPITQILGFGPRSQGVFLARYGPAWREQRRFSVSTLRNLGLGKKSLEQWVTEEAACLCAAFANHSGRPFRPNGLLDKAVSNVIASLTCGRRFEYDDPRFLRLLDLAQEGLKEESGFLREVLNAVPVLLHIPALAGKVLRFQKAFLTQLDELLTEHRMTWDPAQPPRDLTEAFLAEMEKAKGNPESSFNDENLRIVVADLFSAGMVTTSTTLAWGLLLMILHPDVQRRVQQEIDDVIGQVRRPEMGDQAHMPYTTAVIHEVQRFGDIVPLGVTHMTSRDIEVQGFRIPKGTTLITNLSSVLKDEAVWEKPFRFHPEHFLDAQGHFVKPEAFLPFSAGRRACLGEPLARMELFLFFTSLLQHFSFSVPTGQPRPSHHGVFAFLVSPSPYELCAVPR

[9] = Hepatic impairment pharmacokinetic study; assay type: in vivo, human
[10] = human, in vivo
rat bone marrow = assay: In vivo rat bone marrow micronucleus assay
CYP3A4, CYP2B6, CYP1A2 = assay: In vitro CYP induction; assay type: in vitro ADME
[11] = tested on: CYP1A2, CYP2B6, CYP2C8, CYP2C9, CYP2C19, CYP2D6, CYP3A4; assay: In vitro CYP inhibition; assay type: in vitro ADME; conditions: clinically relevant concentrations
[12] = tested on: IL-6 (JAK1/JAK2)-induced STAT3 and IL-7 (JAK1/JAK3)-induced STAT5 phosphorylation; assay: IL-6 induced STAT3 and IL-7 induced STAT5 phosphorylation in whole blood of healthy volunteers; assay type: in vivo, human; conditions: immediate release formulation
Method: The maximal inhibition was observed 1 hour after dosing which returned to near baseline by the end of dosing interval.

[13] = e.g. ketoconazole, Study M13-401
[14] = ketoconazole 400 mg QD, upadacitinib IR formulation
[15] = rifampicin 600 mg QD for 8 days

CC[C@@H]1CN(C(=O)NCC(F)(F)F)C[C@@H]1c1cnc2cnc3[nH]ccc3n12 [upadacitinib, (3S,4R)-3-Ethyl-4-(3H-imidazo[1,2-a]pyrrolo[2,3-e]pyrazin-8-yl)-N-(2,2,2-trifluoroethyl)pyrrolidine-1-carboxamide hydrate (2:1)]
Effect on QTc interval (QTc interval; 2.5 times the mean exposure of the 45 mg once daily dose): no clinically relevant effect
Effect on QTc interval (QTc interval; 6 times the mean maximum exposure of the 15 mg once daily dose): no clinically relevant effect
Plasma exposure, adolescent / pediatric (12 years and older, at least 40 kg) vs adult subjects ([1]; atopic dermatitis studies): similar; also recorded: No meaningful difference
Age as covariate on CL/F and Vc/F ([1]; continuous and discrete (adolescents ≥40 kg vs adults)): not found to be statistically significant
Effect of pH modifying medications (antacids, proton pump inhibitors) on plasma exposures ([1]; in vitro assessments and population PK analyses): not expected to affect
Effect of body weight, gender, race, ethnicity, age on upadacitinib pharmacokinetics / exposure ([1]; in vivo): no relevant effects; also recorded: did not have a clinically meaningful effect
Pharmacokinetics in geriatric patients (>65 years) vs younger adults ([1]; in vivo): No clinically meaningful differences
Effect of CYP2D6 metabolic phenotype (extensive vs poor metabolizers) on upadacitinib CL/F, pharmacokinetics ([1]; population PK analysis): comparability; also recorded: no effect
Venous thrombosis, number of patients [2]: 0 patients
Inhibition of transporters (P-gp, BCRP, OATP1B1, OATP1B3, OCT1, OCT2, OAT1, OAT3, MATE1, MATE2K) [3]: does not inhibit; also recorded: no in vivo relevant inhibition
Upadacitinib exposure with methotrexate ([4]; co-administration with methotrexate): no effect
Upadacitinib plasma exposure with strong CYP2D6 inhibitors, OATP1B inhibitors, MTX, pH modifying medications or statins ([4]; concomitant administration): no effect
Upadacitinib AUC (AUCinf) increase with strong CYP3A4 inhibitor [4, 13]: 75%
Upadacitinib Cmax increase with strong CYP3A4 inhibitor [4, 13]: 70%
Upadacitinib half-life with ketoconazole ([4]; ketoconazole 400 mg QD): no effect on half-life
Upadacitinib AUC increase with ketoconazole [4, 14]: 1.8 fold
Upadacitinib Cmax increase with ketoconazole [4, 14]: 1.7 fold
Upadacitinib AUC decrease with rifampicin [4, 15]: 60%
Upadacitinib Cmax decrease with rifampicin [4, 15]: 50%
Unchanged upadacitinib share of total radioactivity in plasma ([5]; human radiolabeled study): 79%
Active metabolites ([5]; in vivo): No active metabolites
solubility (Solubility in water): ≤ 38 mg/mL
Exposure multiple with no maternal or developmental toxicity (pregnant female rats): approximately 1.6 times the MRHD of 30 mg
Substrate of CYP1A2, 2B6, 2C8, 2C9, 2C18, 2C19, 2J2, FMO1, FMO3, OATP1B1, OATP1B3 or OCT1 [6]: not a substrate
Genotoxicity, chromosome aberration [7]: tested negatively
fraction unbound [8]: 0.48
Substrate of P-gp and BCRP (P-gp, BCRP): substrate
Exposure multiple with viable embryos unaffected (male and female rats; 5 mg/kg/day, AUC basis): approximately 1.0 times the MRHD of 30 mg
Exposure multiple with adverse effect on maintenance of pregnancy (male and female rats; 25 mg/kg/day, AUC basis): approximately 13 times the MRHD of 30 mg
Exposure multiple with adverse effect on maintenance of pregnancy (male and female rats; 75 mg/kg/day, AUC basis): ~48 times the MRHD of 30 mg
Exposure multiple without effect on fertility (male and female rats; female rats, 75 mg/kg/day, AUC basis): ~48 times the MRHD of 30 mg
Number of viable embryos (male and female rats; females 5 mg/kg/day mated to males at the same dose): unaffected
Exposure multiple without effect on fertility (male and female rats; male rats, 50 mg/kg/day, AUC basis): approximately 24 times the MRHD of 30 mg
Maintenance of pregnancy (post-implantation losses, viable embryos per litter) (male and female rats; oral 25 and 75 mg/kg/day): adversely affected
Fertility (male and female rats; oral up to 50 mg/kg/day males, 75 mg/kg/day females): no effect on fertility
Exposure multiple at top dose without tumorigenicity (Sprague-Dawley rats; female rats, 20 mg/kg/day): ~6.0 times the MRHD of 30 mg
Exposure multiple at top dose without tumorigenicity (Sprague-Dawley rats; male rats, 15 mg/kg/day): approximately 2.4 times the MRHD of 30 mg
Tumorigenicity (Sprague-Dawley rats; up to 101 weeks, oral up to 15 (male) or 20 (female) mg/kg/day): No evidence of tumorigenicity
Tumorigenicity (Tg.rasH2 mice): No evidence of tumorigenicity
Exposure multiple with developmental toxicity (cardiovascular malformations, post-implantation loss, decreased fetal body weights) (pregnant rabbits): ≥ 17 times the 15 mg dose
Exposure multiple with no developmental toxicity (pregnant rabbits; organogenesis): ~2.5 times the 15 mg dose
Substrate of / metabolised by CYP2D6 (CYP2D6): substrate; also recorded: potential minor contribution from CYP2D6
Cmax vs normal liver function ([9]; mild hepatic impairment): unchanged
AUC (AUCinf) higher vs normal hepatic function ([9]; mild hepatic impairment (Child-Pugh A)): 28%
Cmax higher vs normal liver function ([9]; moderate hepatic impairment): 43%
AUC (AUCinf) higher vs normal hepatic function ([9]; moderate hepatic impairment (Child-Pugh B)): 24%
AUCinf increase with high-fat/high-calorie meal [10]: 29%
Accumulation after multiple once-daily administrations [10]: minimal accumulation
Cmax increase with high-fat/high-calorie meal [10]: 39%
Contribution of renal secretion to elimination [10]: ≤ 25%
Dose proportionality of plasma exposures [10]: proportional to dose
Time to steady-state plasma concentrations [10]: ≤ 4 days
Genotoxicity, bone marrow micronucleus (rat bone marrow): tested negatively
Induction of CYP1A2 (CYP3A4, CYP2B6, CYP1A2): borderline
Induction of CYP3A4 and CYP2B6 (CYP3A4, CYP2B6, CYP1A2): inducer
Inhibition (or induction) of CYP1A2, 2B6, 2C8, 2C9, 2C19, 2D6, 3A4 [11]: does not inhibit or induce; also recorded: no in vivo relevant inhibition
Inhibition of IL-6-induced STAT3 and IL-7-induced STAT5 phosphorylation in whole blood [12]: dose- and concentration-dependent inhibition
Time of maximal inhibition after dosing [12]: 1 h
